Results as given in the NIST ThermoML archive (doi:10.1021/je700260f).

Conditions: 323.14 K, Liquid, Vibrating tube method

FC(C(F)(F)F)C(F)(F)F [1,1,1,2,3,3,3-heptafluoropropane]
Conditions | mass density [kg/m3]
10190 kPa | 1363.3
10206 kPa | 1363.7
10232 kPa | 1363.8
10249 kPa | 1363.9
10273 kPa | 1364
10288 kPa | 1364
10306 kPa | 1364.3
10331 kPa | 1364.4
10619 kPa | 1366.6
10640 kPa | 1366.6
10664 kPa | 1366.8
10682 kPa | 1367
10704 kPa | 1367.2
10722 kPa | 1367.2
10915 kPa | 1368.6
10935 kPa | 1368.7
10959 kPa | 1368.8
10980 kPa | 1369
10998 kPa | 1369.1
11021 kPa | 1369.4
11042 kPa | 1369.4
11057 kPa | 1369.5
11076 kPa | 1369.7
11096 kPa | 1369.7
11117 kPa | 1370
11135 kPa | 1370.2
11157 kPa | 1370.3
11177 kPa | 1370.4
11197 kPa | 1370.5
11213 kPa | 1370.6
11232 kPa | 1370.9
11253 kPa | 1370.9
11267 kPa | 1370.9
11292 kPa | 1371.1
11315 kPa | 1371.3
11336 kPa | 1371.4
11363 kPa | 1371.8
11565 kPa | 1373.2
11585 kPa | 1373.1
11609 kPa | 1373.4
11632 kPa | 1373.4
11649 kPa | 1373.5
11666 kPa | 1373.6
11689 kPa | 1373.9
11707 kPa | 1374
11729 kPa | 1374.2
11754 kPa | 1374.2
11777 kPa | 1374.4
11792 kPa | 1374.5
11810 kPa | 1374.6
11827 kPa | 1374.8
11848 kPa | 1374.9
11870 kPa | 1375
11893 kPa | 1375.2
11908 kPa | 1375.3
11927 kPa | 1375.4
11947 kPa | 1375.6
11965 kPa | 1375.6
11993 kPa | 1375.7
12013 kPa | 1376
12029 kPa | 1376.1
12054 kPa | 1376.2
12076 kPa | 1376.4
12099 kPa | 1376.6
12118 kPa | 1376.8
12139 kPa | 1376.8
12160 kPa | 1377
12176 kPa | 1376.9
12200 kPa | 1377.2
12222 kPa | 1377.4
12238 kPa | 1377.4
12262 kPa | 1377.6
12274 kPa | 1377.8
12293 kPa | 1377.8
12313 kPa | 1377.9
12329 kPa | 1378.1
12350 kPa | 1378.1
12373 kPa | 1378.3
12391 kPa | 1378.5
12410 kPa | 1378.6
12427 kPa | 1378.8
12447 kPa | 1378.8
12464 kPa | 1378.9
12483 kPa | 1379.1
12497 kPa | 1379.2
12514 kPa | 1379.4
12536 kPa | 1379.3
12551 kPa | 1379.4
12573 kPa | 1379.6
12589 kPa | 1379.7
12612 kPa | 1379.9
12627 kPa | 1380
12652 kPa | 1380.2
12677 kPa | 1380.3
12736 kPa | 1380.7
12755 kPa | 1380.8
13031 kPa | 1382.6
13052 kPa | 1382.8
13077 kPa | 1382.9
13095 kPa | 1383
13117 kPa | 1382.9
13141 kPa | 1383.4
13161 kPa | 1383.4
13263 kPa | 1384.2
13295 kPa | 1384.2
13310 kPa | 1384.3
13334 kPa | 1384.5
13348 kPa | 1384.5
13370 kPa | 1384.7
13389 kPa | 1384.9
13415 kPa | 1385
13433 kPa | 1385
13456 kPa | 1385.2
13476 kPa | 1385.4
13497 kPa | 1385.5
13522 kPa | 1385.7
13541 kPa | 1385.7
13570 kPa | 1385.9
13595 kPa | 1386
13614 kPa | 1386.2
13637 kPa | 1386.4
13663 kPa | 1386.4
13682 kPa | 1386.6
13710 kPa | 1386.8
13870 kPa | 1387.7
14734 kPa | 1393
14760 kPa | 1393
14781 kPa | 1393.3
14798 kPa | 1393.4
14818 kPa | 1393.6
14842 kPa | 1393.7
14866 kPa | 1393.6
14883 kPa | 1393.8
14902 kPa | 1394
14919 kPa | 1394.1
14940 kPa | 1394.1
14959 kPa | 1394.3
14983 kPa | 1394.4
15001 kPa | 1394.4
15028 kPa | 1394.7
15049 kPa | 1394.9
15077 kPa | 1395
15098 kPa | 1395
15122 kPa | 1395.1
15150 kPa | 1395.5
15173 kPa | 1395.6
15198 kPa | 1395.7
15219 kPa | 1395.7
15265 kPa | 1396.1
15284 kPa | 1396.2
15307 kPa | 1396.3
15326 kPa | 1396.4
15346 kPa | 1396.5
15368 kPa | 1396.6
15389 kPa | 1396.7
15413 kPa | 1396.8
15436 kPa | 1397
15456 kPa | 1397.1
15488 kPa | 1397.3
15504 kPa | 1397.5
15524 kPa | 1397.5
15550 kPa | 1397.7
15575 kPa | 1397.8
15602 kPa | 1398
15630 kPa | 1398.1
15655 kPa | 1398.2
15678 kPa | 1398.5
16094 kPa | 1400.8
16115 kPa | 1400.9
16141 kPa | 1401
16161 kPa | 1401.1
16188 kPa | 1401.4
17246 kPa | 1407
17274 kPa | 1407.3
17301 kPa | 1407.6
17357 kPa | 1407.6
17403 kPa | 1407.9
17424 kPa | 1408
17446 kPa | 1408.2
17472 kPa | 1408.3
17493 kPa | 1408.4
17519 kPa | 1408.6
17539 kPa | 1408.5
17574 kPa | 1408.8
17597 kPa | 1408.9
17623 kPa | 1409
17646 kPa | 1409.2
17666 kPa | 1409.3
17693 kPa | 1409.4
17717 kPa | 1409.6
17741 kPa | 1409.7
17761 kPa | 1409.8
17791 kPa | 1410
17819 kPa | 1410.1
17843 kPa | 1410.3
17864 kPa | 1410.4
17920 kPa | 1410.7
18206 kPa | 1412.2
18259 kPa | 1412.5
18289 kPa | 1412.6
18339 kPa | 1412.9
18360 kPa | 1412.9
18390 kPa | 1413.2
18414 kPa | 1413.2
18445 kPa | 1413.4
